Test system: Aβ42 release
Test: Aβ release in cells stably expressing APPswe, Meso Scale Discovery electrochemiluminescence assay
Format: cell-based, Human
Settings: HEK or SH-SY5Y cells stably expressing APPswe, 4-6 hours incubation with test compound; for IC50: Homo sapiens, SH-SY5Y
Description: The level of activity of the compounds on Aβ release was tested using the following method:
Compounds were diluted in 100% DMSO and stored at […] prior to use. Human Embryonic Kidney (HEK) or Human Neuroblastoma (SH-SY5Y) cell lines stably expressing APP with the Swedish mutation (APPswe) were cultured using Dulbecco's Modified Eagles medium (DMEM) supplied with […] glucose, Na-pyruvate and GlutaMAX with 10% FBS, 100 U/ml penicillin-streptomycin (PEST) respectively, 1× non-essential amino acids (NEAA), […] Hepes, 100 μg/ml Zeocine. Cells at about 80% confluence were washed with PBS, detached from culture flasks using 1× Trypsin/EDTA diluted in PBS, re-suspended in cell media and plated in 384-well poly-d-lysine coated cell culture plates at about 10000-15000 cells/well, in 25 μL cell media. Optionally, cryo-preserved cells (frozen and stored at −140° C. in 90% cell media and 10% DMSO) were thawed, washed and plated as above. Next the cells were incubated for 15-24 h at 37° C. and 5% CO2, after which cell medium was changed. Fresh medium containing test compound diluted ×200 from prepared compound plate was added to the cells before further incubation for 4-6 hours at 37° C. and 5% CO2. After incubation with test compound the amount of Aβ peptides, including Aβ42, Aβ40, Aβ39, Aβ38 and Aβ37, secreted to the cell medium was analyzed using the electrochemiluminescence assay technology from Meso Scale Discovery Technology, in combination with specific antibodies raised against the different Aβ peptides. Potential cytotoxic effects of the compounds were usually assayed by measuring the ATP content (ViaLight) from cell lysate.

IC50 [µM]	pIC50	Compound
0.316	–	Cc1nccn1-c1ccc(Nc2nc(CCC3CCCCC3)c3c(n2)CCN(C)C3)cc1 [Example 54, 4-(2-Cyclohexylethyl)-6-methyl-N-(4-(2-methyl-1H-imidazol-1-yl)phenyl)-5,6,7,8-tetrahydropyrido[4,3-d]pyrimidin-2-amine]
0.501	–	Cc1nccn1-c1ccc(Nc2nc3c(c(N[C@@H]4CC5CCC4C5)n2)CN(C)CC3)cc1 (stereo partly drawn) [Example 10, N4-((2R)-bicyclo[2.2.1]heptan-2-yl)-6-methyl-N2-(4-(2-methyl-1H-imidazol-1-yl)phenyl)-5,6,7,8-tetrahydropyrido[4,3-d]pyrimidine-2,4-diamine]
1.58	–	Cc1nccn1-c1ccc(Nc2nc3c(c(CC4CCOCC4)n2)CSCC3)cc1 [Example 46, N-(4-(2-Methyl-1H-imidazol-1-yl)phenyl)-4-((tetrahydro-2H-pyran-4-yl)methyl)-7,8-dihydro-5H-thiopyrano[4,3-d]pyrimidin-2-amine]
0.398	–	CN1CCc2nc(Nc3ccc(-c4cnco4)cc3)nc(N(CCO)c3ccccc3)c2C1 [Example 2, 2-((6-Methyl-2-(4-(oxazol-5-yl)phenylamino)-5,6,7,8-tetrahydropyrido[4,3-d]pyrimidin-4-yl)(phenyl)amino)ethanol]
0.398	–	CC(=O)N1CCc2nc(Nc3ccc(-c4cnco4)cc3)nc(N(C)C3CCCCC3)c2C1 [Example 88, 1-(4-(Cyclohexyl(methyl)amino)-2-(4-(oxazol-5-yl)phenylamino)-7,8-dihydropyrido[4,3-d]pyrimidin-6(5H)-yl)ethanone]
1.26	–	COC(c1ccccc1)c1nc(Nc2ccc(-n3ccnc3C)cc2)nc2c1CS(=O)(=O)CC2 (centres unmarked) [Example 66, 4-[Methoxy(phenyl)methyl]-N-[4-(2-methyl-1H-imidazol-1-yl)phenyl]-7,8-dihydro-5H-thiopyrano[4,3-d]pyrimidin-2-amine 6,6-dioxide]
–	6.6	Cc1nccn1-c1ccc(Nc2nc3c(c(C(C)c4ccccc4)n2)CN(C)CC3)cc1 (single isomer, unassigned) [Example 71, 6-Methyl-N-(4-(2-methyl-1H-imidazol-1-yl)phenyl)-4-(1-phenylethyl)-5,6,7,8-tetrahydropyrido[4,3-d]pyrimidin-2-amine]
0.316	–	COc1cccc(Cc2nc(Nc3ccc(-n4ccnc4C)cc3)nc3c2CN(C)CC3)c1 [Example 53, 4-(3-Methoxybenzyl)-6-methyl-N-(4-(2-methyl-1H-imidazol-1-yl)phenyl)-5,6,7,8-tetrahydropyrido[4,3-d]pyrimidin-2-amine]
0.0794	–	COc1cc(Nc2nc3c(c(Nc4ccccc4)n2)CN(CCO)CC3)ccc1-n1cnc(C)c1 [Example 8, 2-(2-(3-Methoxy-4-(4-methyl-1H-imidazol-1-yl)phenylamino)-4-(phenylamino)-7,8-dihydropyrido[4,3-d]pyrimidin-6(5H)-yl)ethanol]
1	–	OCCN(c1ccccc1)c1nc(Nc2ccc(-c3cnco3)cc2)nc2c1CNCC2 [Example 1, 2-((2-(4-(Oxazol-5-yl)phenylamino)-5,6,7,8-tetrahydropyrido[4,3-d]pyrimidin-4-yl)(phenyl)amino)ethanol]
10	–	CC(=O)N1CCc2nc(Nc3ccc(-c4cnco4)cc3)nc(N3c4ccccc4C[C@@H]3CO)c2C1 [Example 37]
0.501	–	OCCN1CCc2nc(Nc3ccc(-c4cnco4)cc3)nc(NCC3CCOCC3)c2C1 [Example 86, 2-(2-(4-(Oxazol-5-yl)phenylamino)-4-((tetrahydro-2H-pyran-4-yl)methylamino)-7,8-dihydropyrido[4,3-d]pyrimidin-6(5H)-yl)ethanol]
1	–	c1ccc(CNc2nc(Nc3ccc(-c4cnco4)cc3)nc3c2CCNC3)cc1 [Example 5, N4-Benzyl-N2-(4-(oxazol-5-yl)phenyl)-5,6,7,8-tetrahydropyrido[3,4-d]pyrimidine-2,4-diamine]
1.58	–	Cc1nccn1-c1ccc(Nc2nc3c(c(N4c5ccccc5C[C@H]4CO)n2)CN(C)CC3)cc1 [Example 9, (S)-(1-(6-methyl-2-(4-(2-methyl-1H-imidazol-1-yl)phenylamino)-5,6,7,8-tetrahydropyrido[4,3-d]pyrimidin-4-yl)indolin-2-yl)methanol]
0.794	–	Cc1nccn1-c1ccc(Nc2nc3c(c(NC[C@@H]4CCCO4)n2)CN(C)CC3)cc1 [Example 73, (S)-6-Methyl-N2-(4-(2-methyl-1H-imidazol-1-yl)phenyl)-N4-((tetrahydrofuran-2-yl)methyl)-5,6,7,8-tetrahydropyrido[4,3-d]pyrimidine-2,4-diamine]
0.0251	–	COc1cc(Nc2nc3c(c(Cc4ccccc4)n2)CN(CCO)CC3)ccc1-n1cnc(C)c1 [Example 75, 2-(4-Benzyl-2-(3-methoxy-4-(4-methyl-1H-imidazol-1-yl)phenylamino)-7,8-dihydropyrido[4,3-d]pyrimidin-6(5H)-yl)ethanol]
0.251	–	COc1cc(Nc2nc(CCC3CCCO3)c3c(n2)CCN(C(C)=O)C3)ccc1-n1cnc(C)c1 (centres unmarked) [Example 111, 1-(2-(3-Methoxy-4-(4-methyl-1H-imidazol-1-yl)phenylamino)-4-(2-(tetrahydrofuran-2-yl)ethyl)-7,8-dihydropyrido[4,3-d]pyrimidin-6(5H)-yl)ethanone]
1.26	–	c1ccc(CNc2nc(Nc3ccc(-c4cnco4)cc3)nc3c2CNCC3)cc1 [Example 6, N4-Benzyl-N2-(4-(oxazol-5-yl)phenyl)-5,6,7,8-tetrahydropyrido[4,3-d]pyrimidine-2,4-diamine]
1	–	C[C@H](O)C(=O)N1CCc2nc(Nc3ccc(-c4cnco4)cc3)nc(N(CCO)c3ccccc3)c2C1 [Example 20, (S)-2-Hydroxy-1-(4-((2-hydroxyethyl)(phenyl)amino)-2-(4-(oxazol-5-yl)phenylamino)-7,8-dihydropyrido[4,3-d]pyrimidin-6(5H)-yl)propan-1-one]
0.02	–	COc1cc(Nc2nc3c(c(COC4CCCC4)n2)COCC3)ccc1-n1cnc(C)c1 [Example 109, 4-(Cyclopentyloxymethyl)-N-(3-methoxy-4-(4-methyl-1H-imidazol-1-yl)phenyl)-7,8-dihydro-5H-pyrano[4,3-d]pyrimidin-2-amine]
3.16	–	CC(=O)N1CCc2nc(Nc3ccc(-c4cnco4)cc3)nc(NC3(CO)CCCC3)c2C1 [Example 35, 1-(4-(1-(Hydroxymethyl)cyclopentylamino)-2-(4-(oxazol-5-yl)phenylamino)-7,8-dihydropyrido[4,3-d]pyrimidin-6(5H)-yl)ethanone]
0.631	–	O=C(C1CC1)N1CCc2nc(Nc3ccc(-c4cnco4)cc3)nc(N(CCO)c3ccccc3)c2C1 [Example 16, Cyclopropyl(4-((2-hydroxyethyl)(phenyl)amino)-2-(4-(oxazol-5-yl)phenylamino)-7,8-dihydropyrido[4,3-d]pyrimidin-6(5H)-yl)methanone]
0.398	–	CCC(=O)N1CCc2nc(Nc3ccc(-c4cnco4)cc3)nc(N(CCO)c3ccccc3)c2C1 [Example 15, 1-(4-((2-Hydroxyethyl)(phenyl)amino)-2-(4-(oxazol-5-yl)phenylamino)-7,8-dihydropyrido[4,3-d]pyrimidin-6(5H)-yl)propan-1-one]
0.398	–	CC(=O)N1CCc2nc(Nc3ccc(-n4ccnc4C)cc3)nc(Cc3ccc(C)cc3)c2C1 [Example 59, 1-(2-(4-(2-Methyl-1H-imidazol-1-yl)phenylamino)-4-(4-methylbenzyl)-7,8-dihydropyrido[4,3-d]pyrimidin-6(5H)-yl)ethanone]
0.631	–	CC(=O)N1CCc2nc(Nc3ccc(-c4cnco4)cc3)nc(Nc3cccc(CO)c3)c2C1 [Example 29, 1-(4-(3-(Hydroxymethyl)phenylamino)-2-(4-(oxazol-5-yl)phenylamino)-7,8-dihydropyrido[4,3-d]pyrimidin-6(5H)-yl)ethanone]
2.51	–	CC(=O)N1CCc2nc(Nc3ccc(-c4cnco4)cc3)nc(N(C)Cc3ccccc3CO)c2C1 [Example 91, 1-(4-((2-(Hydroxymethyl)benzyl)(methyl)amino)-2-(4-(oxazol-5-yl)phenylamino)-7,8-dihydropyrido[4,3-d]pyrimidin-6(5H)-yl)ethanone]
0.398	–	Cc1nccn1-c1ccc(Nc2nc3c(c(NC4CCCCC4)n2)CN(C)CC3)cc1 [Example 69, N4-Cyclohexyl-6-methyl-N2-(4-(2-methyl-1H-imidazol-1-yl)phenyl)-5,6,7,8-tetrahydropyrido[4,3-d]pyrimidine-2,4-diamine]
10	–	Cc1nccn1-c1ccc(Nc2nc3c(c(CC4CCOCC4)n2)CN(C)CC3)cc1 [Example 61, 6-Methyl-N-(4-(2-methyl-1H-imidazol-1-yl)phenyl)-4-((tetrahydro-2H-pyran-4-yl)methyl)-5,6,7,8-tetrahydropyrido[4,3-d]pyrimidin-2-amine]
0.251	–	Cc1nccn1-c1ccc(Nc2nc(CCc3cccc(F)c3)c3c(n2)CCN(C)C3)cc1 [Example 51, 4-(3-Fluorophenethyl)-6-methyl-N-(4-(2-methyl-1H-imidazol-1-yl)phenyl)-5,6,7,8-tetrahydropyrido[4,3-d]pyrimidin-2-amine]

Reference: patent US8188101B2 (AstraZeneca AB, priority 2008, dated 2012)
